Reference: PubChem BioAssay AID1645864 (Buhrlage Lab, Dana-Farber Cancer Institute and Novartis …, 2021)
Calls of active or inactive are those of the source.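 The calls were made as follows: active = maximal inhibition of USP17 at or above 30% in the confirmation dose-response, a value not among the printed readouts; inactive = the rest.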

target: Ubiquitin carboxyl-terminal hydrolase 17-like protein 5 (Homo sapiens) (UniProt A8MUK1); assay: ubiquitin-specific protease 17 inhibitors, concentration series, biochemical, verification of primary actives (AID 1645864); settings: purified USP17, ubiquitin-rhodamine cleavage fluorescence, 3 h
Sequence (A8MUK1 whole entry, looked up): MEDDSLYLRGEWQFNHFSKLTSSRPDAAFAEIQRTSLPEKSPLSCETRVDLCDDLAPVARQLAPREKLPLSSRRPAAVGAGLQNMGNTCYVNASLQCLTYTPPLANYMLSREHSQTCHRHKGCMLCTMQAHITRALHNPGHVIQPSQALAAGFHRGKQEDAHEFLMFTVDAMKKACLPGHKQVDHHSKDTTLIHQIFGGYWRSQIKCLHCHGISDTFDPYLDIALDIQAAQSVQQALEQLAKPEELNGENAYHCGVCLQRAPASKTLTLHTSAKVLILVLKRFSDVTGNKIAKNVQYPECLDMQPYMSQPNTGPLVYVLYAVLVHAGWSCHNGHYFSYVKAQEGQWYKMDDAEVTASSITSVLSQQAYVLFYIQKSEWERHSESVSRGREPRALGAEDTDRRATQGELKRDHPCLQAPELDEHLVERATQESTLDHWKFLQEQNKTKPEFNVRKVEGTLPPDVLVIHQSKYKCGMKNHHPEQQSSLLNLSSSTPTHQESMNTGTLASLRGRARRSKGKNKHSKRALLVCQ

SMILES	IC50
CC1(O)CC(=O)c2c(cc3cc(O)cc(O)c3c2O)C1 (stereo not drawn)	0.115 µM
COc1cccc(-n2nnc(C(=O)Nc3ccc(C)c(C)c3)c2C)c1	> 50 µM (inactive)
O=C(Cc1cc(-c2ccccc2)on1)NCc1c(F)cccc1F	28.1 µM
O=C(CSc1nc2ccccc2n1S(=O)(=O)c1ccc(Br)cc1)Nc1ccc([N+](=O)[O-])cc1Cl	> 50 µM (inactive)
CS(=O)(=O)N1CCCc2cc(C(=O)Nc3ccc4c(c3)OCO4)ccc21	> 50 µM (inactive)
CC(C)c1cc(Nc2cccc(F)c2)n2nc(-c3cccnc3)nc2n1	7.65 µM
Fc1ccc(CN2CCc3nc4cccnc4cc3C2)cc1	> 50 µM (inactive)
Cc1ccc2[nH]c(=O)c(CN(CC3COCCO3)S(=O)(=O)c3ccc(F)cc3)cc2c1 (stereo not drawn)	4.16 µM
COc1ccc(C)cc1NC(=O)C(NS(=O)(=O)c1ccc2c(c1)CCN2C(C)=O)C(C)C (stereo not drawn)	> 50 µM (inactive)
O=C(O)c1ccccc1C(=O)Nc1ccc(SC(C(=O)Nc2ccccc2)c2ccccc2)cc1 (stereo not drawn)	> 50 µM (inactive)
Cc1ccc(C)c(Cn2nnc3c(=O)[nH]c(C4CCN(S(=O)(=O)c5ccc(S(=O)(=O)NC6CC6)cc5)CC4)nc32)c1	24.4 µM
O=C(CN1C(=O)COc2ccc(Cl)cc21)Nc1cccc2ncccc12	> 50 µM (inactive)
Cc1ccc(-n2nc(C(=O)Nc3ccc(C)cn3)c3ncn(C)c(=O)c32)cc1	2.65 µM
COc1ccc(NC(=O)C2CCCN(S(=O)(=O)N3CCCCCC3)C2)cc1 (stereo not drawn)	29.7 µM
Cc1c2c(nc3ccccc13)-c1ccccc1CC2	> 50 µM (inactive)
COc1cc2c(cc1OC)-c1cc(NCc3cc(OC)c(OC)c(OC)c3)nc(=O)n1CC2	> 50 µM (inactive)
Cc1ccc2nc(NC(=O)C3CCCN3S(=O)(=O)c3ccc4c(c3)OCCO4)sc2c1 (stereo not drawn)	> 50 µM (inactive)
COc1cccc(CNC(=O)C2=Cc3cccc(OC)c3OC2)c1	> 50 µM (inactive)
COc1ccc(-c2nc3n(n2)C(CC(=O)Nc2cccc4ccccc24)C(=O)N3)cc1 (stereo not drawn)	8.65 µM
O=C(CCC1CCCCC1)Nc1ccccc1C(=O)N1CCOCC1	> 5 µM (inactive)
CC1CCN(C(=O)c2cn(-c3cc(N4CCC(C)CC4)ncn3)cn2)CC1	> 50 µM (inactive)
CCCCNC(=O)C1Sc2nnc(-c3ccccc3)n2NC1c1ccccc1 (stereo not drawn)	23.7 µM
Cc1ccc2nc(-c3cccc(-c4nc5ccc(C)cc5[nH]4)n3)[nH]c2c1	7.06 µM
Cc1nn(-c2ccccc2)c(C)c1C(=O)OCC(=O)Nc1cccc(C#N)c1	> 50 µM (inactive)
O=C(Cc1noc2ccccc12)N1CCN(c2ccc([N+](=O)[O-])cc2)CC1	> 50 µM (inactive)

SMILES	IC50
O=C(CSc1ccc(-c2cccc([N+](=O)[O-])c2)nn1)Nc1cccc(F)c1	2.7 µM
c1csc(-c2nc(Nc3ccc4c(c3)CCC4)c3ccccc3n2)c1	4.19 µM
COc1ccc(NC(=O)Cn2c(CS(=O)(=O)c3ccc(C)cc3)nc3ccccc32)cc1	6.52 µM
Cc1cc(N2CCOCC2)nc2ccc(NC(=O)CCC(=O)Nc3ccc(F)cc3)cc12	24.2 µM
Cc1ccc(Nc2nc(Nc3cccc(F)c3)nc3nccnc23)c(C)c1	> 50 µM (inactive)
COc1ccc(-c2nc(Cn3nnc(C(=O)Nc4ccc(C)c(C)c4)c3N)c(C)o2)cc1	2.24 µM
O=C(COc1ccc(Cl)cc1)Nc1noc(-c2ccccc2)n1	22.6 µM
COc1ccccc1/C=C/C(=O)Nc1nc2n(n1)C(c1ccc(Cl)cc1)CC(=O)N2 (stereo not drawn)	> 50 µM (inactive)
CCn1c(Cn2cccn2)nc2cc(NC(=O)c3ccc(F)cc3)ccc21	> 50 µM (inactive)
O=C(Nc1ccc2ccccc2n1)c1ccc(Cl)cc1	2.19 µM
Cc1noc(NS(=O)(=O)c2ccc(NC(=O)CSc3ccc4ccccc4c3)cc2)c1C	> 50 µM (inactive)
NS(=O)(=O)c1cc(C(=O)OCC(=O)NC2CCCc3ccccc32)ccc1Cl (stereo not drawn)	47.4 µM
Cc1ccc(Cn2nnc(-c3noc(-c4ccc[nH]4)n3)c2C)cc1	> 50 µM (inactive)
CCc1ccc2c(c1)[C@]1(C(=O)N2)[C@@H]2C(=O)N(c3ccc(Cl)cc3Cl)C(=O)[C@@H]2[C@@H]2CCCN21	> 50 µM (inactive)
Cc1noc(C)c1CN1CC[C@H]2O[C@H](C(=O)NCc3ccco3)CC[C@H]21	> 50 µM (inactive)
CCN(CC)C(=O)c1sc(NC(=O)/C=C/c2c(F)cccc2Cl)c(C#N)c1C	2.29 µM
COc1cc(-c2cc(C(=O)Nc3cc(C)[nH]n3)c3ccccc3n2)cc(OC)c1OC	42.9 µM
CC(C)(C)C(=O)C1C2C(=O)N(c3ccc4c(c3)OCO4)C(=O)C2C2c3ccccc3C=CN12 (stereo not drawn)	> 50 µM (inactive)
O=C(NC(Cc1ccccc1)c1nc2ccccc2[nH]1)c1ccccn1 (stereo not drawn)	> 50 µM (inactive)
O=C(Cn1c(-c2ccccc2)ncc(C(=O)NC2CC2)c1=O)Nc1ccccc1	12.1 µM
NS(=O)(=O)c1cccc(NC(=O)CN2CCCc3ccccc32)c1	> 50 µM (inactive)
O=C(Nc1ccccc1-c1nc2ccccc2[nH]1)c1sc2ccccc2c1Cl	1.8 µM
Cc1ccc(Cn2nnc(-c3ccccc3Cl)n2)cc1	> 50 µM (inactive)
COc1ccc(C)cc1NC(=O)Cc1csc(NC(=O)c2ccc(=O)[nH]c2)n1	40.5 µM
COC(=O)c1ccc(NC(=O)CSc2nnc(-c3ccc(O)cc3)n2Cc2ccco2)cc1	24.9 µM

SMILES	IC50
CN1CC2CN(C(=O)c3ccc(F)cc3)CCN2Cc2ccccc21 (stereo not drawn)	> 50 µM (inactive)
COc1cccc(-c2cc(=O)[nH]c(Nc3nc(C)c4ccccc4n3)n2)c1	43.1 µM
Nc1ccc(NC(=O)c2cc3c(s2)CCC3)cc1[N+](=O)[O-]	24.6 µM
CC(=O)c1oc2nc3c(c(-c4ccc(Cl)cc4)c2c1N)CCc1ccccc1-3	> 50 µM (inactive)
CCOc1ccc2c(c1)c(=O)c(C(=O)c1ccc(C)cc1)cn2CC(=O)Nc1ccc(OC)c(OC)c1	0.464 µM
Nc1c(C(=O)c2cccs2)oc2nc(-c3ccccc3)cc(-c3ccco3)c12	> 50 µM (inactive)
Cc1ccc(NC(=O)Cc2nnc3c(-c4nc(C5CC5)no4)cccn23)cc1	4.85 µM
O=C(NCc1nc(-c2ccc3c(c2)[nH]c(=O)n3C2CCCC2)no1)c1ccccc1	> 5 µM (inactive)
COc1cc(NC(=O)COC(=O)Cn2cnc3ccccc32)cc(OC)c1	> 50 µM (inactive)
O=C(Nc1ccc(-c2cn3ccsc3n2)cc1)c1ccc(Cl)c([N+](=O)[O-])c1	1.17 µM
CCOC(=O)c1c(C)oc2nc(CSc3ccccc3)[nH]c(=O)c12	> 50 µM (inactive)
CCOC(=O)c1ccc(-n2c(=O)c(C#N)cc3c(=O)n4ccccc4nc32)cc1	> 50 µM (inactive)
CN(C)c1cc(-n2cnc(C(=O)NCc3ccccc3Cl)c2)ncn1	41.3 µM
CSc1ccccc1NC(=O)c1ccc(-n2cccn2)nn1	4.43 µM
COc1ccccc1NC(=O)CNC(=O)c1nn(-c2ccc(OC)c(OC)c2)c(=O)c2ccccc12	29.4 µM
CCCn1c(=O)n(CC(=O)c2ccccc2F)c2c(C(N)=O)nc(-c3ccco3)nc21	> 50 µM (inactive)
CC(C)c1nc2sc3c(NCc4ccco4)ncnc3c2c2c1CCC2	> 50 µM (inactive)
O=C(Nc1cccc(Cl)c1)N1CCN(c2cc(C(F)(F)F)ccn2)CC1	12.3 µM
COc1ccc(CNC(=O)CCc2nc3sc4c(c3c(=O)[nH]2)CCCCC4)cc1	> 50 µM (inactive)
COc1ccccc1CC(=O)Nc1nc2ccccc2[nH]1	33.3 µM
COc1ccc(-n2nnc(C(=O)Nc3ccccc3)c2N)cc1	26.8 µM
Cc1ncncc1C(=O)N1CCCC(C)(c2ncc(Cc3cccc(F)c3)o2)C1 (stereo not drawn)	> 50 µM (inactive)
CC(C)(C)c1ccc(Cn2nnc3c(=O)[nH]c(C4CCN(S(=O)(=O)c5ccc(S(=O)(=O)NC6CC6)cc5)CC4)nc32)cc1	39.3 µM
COc1ccc(C(=O)C2CC(=O)Nc3c2c(C)nn3-c2ccc(Br)cc2)cc1 (stereo not drawn)	10 µM
C[C@H](NC(=O)Cc1ccccc1F)c1nc2cc(-c3ccccc3F)ncn2n1	> 50 µM (inactive)

SMILES	IC50
O=C(COc1cccc(C(=O)NCc2ccccc2)c1)Nc1ccc(Oc2ccccc2)cc1	34.5 µM
COc1cccc(CN2CCc3nc4nc(C)ccc4cc3C2)c1	> 50 µM (inactive)
O=C(Cn1c(=O)n(Cc2ccccc2)c(=O)c2ncccc21)NCc1ccccc1Cl	37.9 µM
N#Cc1c(-c2cccs2)cc(-c2cccs2)[nH]c1=O	> 50 µM (inactive)
COc1cc(Cl)c(C)cc1NC(=O)Cn1c(=O)n(CC(=O)NCc2ccco2)c(=O)c2ccccc21	2.37 µM
O=C(NCc1ccc2c(c1)OCO2)c1nc(-c2ccccc2)n(-c2ccccc2)n1	> 50 µM (inactive)
O=C(/C=C/c1ccc(F)cc1)N1CCC(Cc2ccccc2)CC1	41.8 µM
CC1CS(=O)(=O)N(c2ccc(C(=O)Nc3ccc4c(c3)OCCO4)cc2)C1=O (stereo not drawn)	35.6 µM
O=C(Nc1ccc(N2CCOCC2)cc1)c1ccc(-c2ccc(N3CCCC3)nn2)cc1	> 50 µM (inactive)
Cc1nc(NCc2ccccn2)c2cc(-c3ccccc3)sc2n1	24.7 µM
O=C(O)c1ccc(C2Cc3c([nH]c(=O)[nH]c3=O)O2)cc1 (stereo not drawn)	44.9 µM
COc1ccccc1C(=O)NCC(c1ccc2c(c1)CCCN2C)N1CCCC1 (stereo not drawn)	> 50 µM (inactive)
c1ccc2c(Cc3nc(-c4ccncc4)no3)cccc2c1	> 50 µM (inactive)
Cc1ccc(C(=O)Nc2cc3c4c(c2)CC(=O)N4CCC3)cc1C	> 50 µM (inactive)
Nc1nonc1C(=O)NCCNCc1cccc(OCc2ccc(Cl)cc2)c1	> 50 µM (inactive)
NS(=O)(=O)c1ccc(CNS(=O)(=O)c2ccc(-c3ccccn3)s2)cc1	23.2 µM
Cc1ccc(-c2c(C(=O)Nc3ccc(S(N)(=O)=O)cc3)oc(=O)c3ccccc23)cc1	31.9 µM
Cc1cc(C)cc(N(CCC(=O)Nc2ccc(N3CCOCC3)cc2)S(=O)(=O)c2ccc(Cl)cc2)c1	18.2 µM
CCN1CCN(C(=O)CCCN(c2ccccc2)S(C)(=O)=O)CC1	> 50 µM (inactive)
O=C1NCCCC1Cc1ccc(-c2cccc(C(=O)N3CCc4ccccc4C3)c2)cc1 (stereo not drawn)	38.2 µM
O=C(COc1ccc(Cl)cc1Cl)Nc1ccccc1-c1nc2ccccc2[nH]1	2.12 µM
COc1cccc(NC(=O)c2cnc3c(c2)c(=O)n(C)c(=O)n3C)c1	2.34 µM
O=C(Cn1cnc2ccccc21)Nc1ccc2c(c1)CCC2	27.9 µM
